{
  "source": "the NIST ThermoML archive (doi:10.1016/j.tca.2014.03.043)",
  "assay": "molar heat capacity at constant pressure",
  "conditions": "101.33 kPa, Liquid, Small sample (50 mg) DSC",
  "note": "Values joined by “and” are separate entries in the source; they are usually repeats but may differ in a detail not shown here. Identical values can stand only once. ± gives the expanded uncertainty stated by the source.",
  "data": [
    {"smiles": "OCCC1CCCCC1", "note": "[2-cyclohexylethanol]", "values": [
      {"measurement": "molar heat capacity at constant pressure", "setting": "253.5 K", "result": "222 ± 3.4 J/K/mol and 223.33 ± 3.5 J/K/mol"},
      {"measurement": "molar heat capacity at constant pressure", "setting": "256.05 K", "result": "226.07 ± 3.5 J/K/mol and 226.32 ± 3.5 J/K/mol"},
      {"measurement": "molar heat capacity at constant pressure", "setting": "260.65 K", "result": "229.4 ± 3.5 J/K/mol and 229.73 ± 3.6 J/K/mol"},
      {"measurement": "molar heat capacity at constant pressure", "setting": "265.75 K", "result": "233.72 ± 3.6 J/K/mol and 233.97 ± 3.6 J/K/mol"},
      {"measurement": "molar heat capacity at constant pressure", "setting": "270.86 K", "result": "238.29 ± 3.7 J/K/mol and 238.21 ± 3.7 J/K/mol"},
      {"measurement": "molar heat capacity at constant pressure", "setting": "275.96 K", "result": "242.12 ± 3.8 J/K/mol and 242.2 ± 3.8 J/K/mol"},
      {"measurement": "molar heat capacity at constant pressure", "setting": "281.07 K", "result": "246.19 ± 3.8 J/K/mol and 246.44 ± 3.8 J/K/mol"},
      {"measurement": "molar heat capacity at constant pressure", "setting": "286.17 K", "result": "251.6 ± 3.9 J/K/mol and 251.26 ± 3.9 J/K/mol"},
      {"measurement": "molar heat capacity at constant pressure", "setting": "291.28 K", "result": "256.67 ± 4 J/K/mol and 256.42 ± 4 J/K/mol"},
      {"measurement": "molar heat capacity at constant pressure", "setting": "296.38 K", "result": "261.91 ± 4.1 J/K/mol and 262.07 ± 4.1 J/K/mol"},
      {"measurement": "molar heat capacity at constant pressure", "setting": "301.48 K", "result": "267.56 ± 4.2 J/K/mol and 266.98 ± 4.1 J/K/mol"},
      {"measurement": "molar heat capacity at constant pressure", "setting": "306.59 K", "result": "273.13 ± 4.2 J/K/mol and 273.21 ± 4.2 J/K/mol"},
      {"measurement": "molar heat capacity at constant pressure", "setting": "311.7 K", "result": "278.7 ± 4.3 J/K/mol and 279.03 ± 4.3 J/K/mol"},
      {"measurement": "molar heat capacity at constant pressure", "setting": "316.81 K", "result": "284.35 ± 4.4", "unit": "J/K/mol"},
      {"measurement": "molar heat capacity at constant pressure", "setting": "321.91 K", "result": "290.17 ± 4.5 J/K/mol and 289.93 ± 4.5 J/K/mol"},
      {"measurement": "molar heat capacity at constant pressure", "setting": "327.01 K", "result": "295.5 ± 4.6 J/K/mol and 295.58 ± 4.6 J/K/mol"},
      {"measurement": "molar heat capacity at constant pressure", "setting": "332.12 K", "result": "301.15 ± 4.7 J/K/mol and 300.82 ± 4.7 J/K/mol"},
      {"measurement": "molar heat capacity at constant pressure", "setting": "337.22 K", "result": "307.39 ± 4.8 J/K/mol and 306.64 ± 4.8 J/K/mol"},
      {"measurement": "molar heat capacity at constant pressure", "setting": "342.33 K", "result": "313.87 ± 4.9 J/K/mol and 312.71 ± 4.8 J/K/mol"},
      {"measurement": "molar heat capacity at constant pressure", "setting": "347.43 K", "result": "318.61 ± 4.9 J/K/mol and 317.95 ± 4.9 J/K/mol"},
      {"measurement": "molar heat capacity at constant pressure", "setting": "352.54 K", "result": "323.27 ± 5 J/K/mol and 322.6 ± 5 J/K/mol"}
    ]},
    {"smiles": "C=CCO", "note": "[2-propenol]", "values": [
      {"measurement": "molar heat capacity at constant pressure", "setting": "273.41 K", "result": "134.94 ± 2.1 J/K/mol and 134.61 ± 2.1 J/K/mol"},
      {"measurement": "molar heat capacity at constant pressure", "setting": "278.52 K", "result": "137.19 ± 2.1 J/K/mol and 137.35 ± 2.1 J/K/mol"},
      {"measurement": "molar heat capacity at constant pressure", "setting": "283.62 K", "result": "139.43 ± 2.2 J/K/mol and 139.18 ± 2.2 J/K/mol"},
      {"measurement": "molar heat capacity at constant pressure", "setting": "288.72 K", "result": "141.93 ± 2.2 J/K/mol and 141.68 ± 2.2 J/K/mol"},
      {"measurement": "molar heat capacity at constant pressure", "setting": "293.83 K", "result": "144.34 ± 2.2 J/K/mol and 144.17 ± 2.2 J/K/mol"},
      {"measurement": "molar heat capacity at constant pressure", "setting": "298.93 K", "result": "146.67 ± 2.3 J/K/mol and 146.5 ± 2.3 J/K/mol"},
      {"measurement": "molar heat capacity at constant pressure", "setting": "304.04 K", "result": "149.16 ± 2.3 J/K/mol and 149.08 ± 2.3 J/K/mol"},
      {"measurement": "molar heat capacity at constant pressure", "setting": "309.14 K", "result": "152.32 ± 2.4 J/K/mol and 151.82 ± 2.4 J/K/mol"},
      {"measurement": "molar heat capacity at constant pressure", "setting": "314.25 K", "result": "154.82 ± 2.4 J/K/mol and 154.4 ± 2.4 J/K/mol"},
      {"measurement": "molar heat capacity at constant pressure", "setting": "319.35 K", "result": "157.23 ± 2.4 J/K/mol and 157.06 ± 2.4 J/K/mol"},
      {"measurement": "molar heat capacity at constant pressure", "setting": "324.46 K", "result": "160.14 ± 2.5 J/K/mol and 160.3 ± 2.5 J/K/mol"}
    ]},
    {"smiles": "OCCCC1CCCCC1", "note": "[3-cyclohexyl-1-propanol]", "values": [
      {"measurement": "molar heat capacity at constant pressure", "setting": "258.09 K", "result": "254.42 ± 3.9 J/K/mol and 254.84 ± 4 J/K/mol"},
      {"measurement": "molar heat capacity at constant pressure", "setting": "263.2 K", "result": "258.91 ± 4 J/K/mol and 258.66 ± 4 J/K/mol"},
      {"measurement": "molar heat capacity at constant pressure", "setting": "268.3 K", "result": "263.07 ± 4.1 J/K/mol and 262.65 ± 4.1 J/K/mol"},
      {"measurement": "molar heat capacity at constant pressure", "setting": "273.41 K", "result": "267.64 ± 4.2 J/K/mol and 267.48 ± 4.1 J/K/mol"},
      {"measurement": "molar heat capacity at constant pressure", "setting": "278.51 K", "result": "272.22 ± 4.2 J/K/mol and 271.97 ± 4.2 J/K/mol"},
      {"measurement": "molar heat capacity at constant pressure", "setting": "283.62 K", "result": "277.37 ± 4.3 J/K/mol and 277.12 ± 4.3 J/K/mol"},
      {"measurement": "molar heat capacity at constant pressure", "setting": "288.72 K", "result": "282.28 ± 4.4", "unit": "J/K/mol"},
      {"measurement": "molar heat capacity at constant pressure", "setting": "293.83 K", "result": "288.01 ± 4.5 J/K/mol and 287.76 ± 4.5 J/K/mol"},
      {"measurement": "molar heat capacity at constant pressure", "setting": "298.93 K", "result": "293.5 ± 4.5 J/K/mol and 293.33 ± 4.5 J/K/mol"},
      {"measurement": "molar heat capacity at constant pressure", "setting": "304.04 K", "result": "299.74 ± 4.7", "unit": "J/K/mol"},
      {"measurement": "molar heat capacity at constant pressure", "setting": "309.14 K", "result": "305.72 ± 4.7 J/K/mol and 305.64 ± 4.7 J/K/mol"},
      {"measurement": "molar heat capacity at constant pressure", "setting": "314.25 K", "result": "311.63 ± 4.8 J/K/mol and 311.54 ± 4.8 J/K/mol"},
      {"measurement": "molar heat capacity at constant pressure", "setting": "319.35 K", "result": "317.61 ± 4.9 J/K/mol and 317.7 ± 4.9 J/K/mol"},
      {"measurement": "molar heat capacity at constant pressure", "setting": "324.46 K", "result": "323.6 ± 5 J/K/mol and 323.85 ± 5 J/K/mol"},
      {"measurement": "molar heat capacity at constant pressure", "setting": "329.56 K", "result": "330.5 ± 5.1 J/K/mol and 330 ± 5.1 J/K/mol"},
      {"measurement": "molar heat capacity at constant pressure", "setting": "334.67 K", "result": "335.9 ± 5.2 J/K/mol and 336.24 ± 5.2 J/K/mol"},
      {"measurement": "molar heat capacity at constant pressure", "setting": "339.77 K", "result": "342.31 ± 5.3 J/K/mol and 342.39 ± 5.3 J/K/mol"},
      {"measurement": "molar heat capacity at constant pressure", "setting": "344.88 K", "result": "348.46 ± 5.4 J/K/mol and 348.63 ± 5.4 J/K/mol"},
      {"measurement": "molar heat capacity at constant pressure", "setting": "349.98 K", "result": "354.28 ± 5.5 J/K/mol and 354.61 ± 5.5 J/K/mol"},
      {"measurement": "molar heat capacity at constant pressure", "setting": "355.09 K", "result": "360.35 ± 5.6 J/K/mol and 360.02 ± 5.6 J/K/mol"}
    ]},
    {"smiles": "OCC1CCCCC1", "note": "[cyclohexylmethanol]", "values": [
      {"measurement": "molar heat capacity at constant pressure", "setting": "258.09 K", "result": "199.13 ± 3.1 J/K/mol and 198.88 ± 3.1 J/K/mol"},
      {"measurement": "molar heat capacity at constant pressure", "setting": "263.2 K", "result": "202.87 ± 3.1 J/K/mol and 202.54 ± 3.1 J/K/mol"},
      {"measurement": "molar heat capacity at constant pressure", "setting": "268.3 K", "result": "207.03 ± 3.2 J/K/mol and 206.61 ± 3.2 J/K/mol"},
      {"measurement": "molar heat capacity at constant pressure", "setting": "273.41 K", "result": "211.52 ± 3.3 J/K/mol and 210.94 ± 3.3 J/K/mol"},
      {"measurement": "molar heat capacity at constant pressure", "setting": "278.51 K", "result": "215.68 ± 3.3 J/K/mol and 215.18 ± 3.3 J/K/mol"},
      {"measurement": "molar heat capacity at constant pressure", "setting": "283.62 K", "result": "220.83 ± 3.4 J/K/mol and 219.83 ± 3.4 J/K/mol"},
      {"measurement": "molar heat capacity at constant pressure", "setting": "288.72 K", "result": "225.32 ± 3.5 J/K/mol and 224.74 ± 3.5 J/K/mol"},
      {"measurement": "molar heat capacity at constant pressure", "setting": "293.83 K", "result": "230.56 ± 3.6 J/K/mol and 229.98 ± 3.6 J/K/mol"},
      {"measurement": "molar heat capacity at constant pressure", "setting": "298.93 K", "result": "236.46 ± 3.7 J/K/mol and 235.55 ± 3.6 J/K/mol"},
      {"measurement": "molar heat capacity at constant pressure", "setting": "304.04 K", "result": "242.28 ± 3.8 J/K/mol and 241.62 ± 3.7 J/K/mol"},
      {"measurement": "molar heat capacity at constant pressure", "setting": "309.14 K", "result": "247.94 ± 3.8 J/K/mol and 247.36 ± 3.8 J/K/mol"},
      {"measurement": "molar heat capacity at constant pressure", "setting": "314.25 K", "result": "254.26 ± 3.9 J/K/mol and 253.34 ± 3.9 J/K/mol"},
      {"measurement": "molar heat capacity at constant pressure", "setting": "319.35 K", "result": "260.24 ± 4 J/K/mol and 259.49 ± 4 J/K/mol"},
      {"measurement": "molar heat capacity at constant pressure", "setting": "324.46 K", "result": "265.98 ± 4.1 J/K/mol and 265.56 ± 4.1 J/K/mol"},
      {"measurement": "molar heat capacity at constant pressure", "setting": "329.57 K", "result": "271.38 ± 4.2 J/K/mol and 270.55 ± 4.2 J/K/mol"},
      {"measurement": "molar heat capacity at constant pressure", "setting": "334.67 K", "result": "276.54 ± 4.3 J/K/mol and 275.87 ± 4.3 J/K/mol"},
      {"measurement": "molar heat capacity at constant pressure", "setting": "339.77 K", "result": "281.78 ± 4.4 J/K/mol and 280.86 ± 4.3 J/K/mol"},
      {"measurement": "molar heat capacity at constant pressure", "setting": "344.88 K", "result": "287.35 ± 4.5 J/K/mol and 286.52 ± 4.4 J/K/mol"},
      {"measurement": "molar heat capacity at constant pressure", "setting": "349.98 K", "result": "292.34 ± 4.5 J/K/mol and 291.51 ± 4.5 J/K/mol"},
      {"measurement": "molar heat capacity at constant pressure", "setting": "355.09 K", "result": "296.83 ± 4.6 J/K/mol and 296.33 ± 4.6 J/K/mol"}
    ]}
  ]
}
